We go through five molecules from patent publication US5547870A, “Oxalate decarboxylate” (Zeneca Limited, priority 1994, dated 1996).

Structures can show the parent of a compound that is named as a salt.

Data set [1] deals with T1, Collybia velutipes oxalate decarboxylase, purified native enzyme, peak A (eluting at pH 3.3 on chromatofocusing) (Flammulina velutipes, UniProt Q9UVK4).
T1 construct: chromatofocusing peak A (pH 3.3); about 55 kDa when deglycosylated
T1 sequence (Q9UVK4 21-447): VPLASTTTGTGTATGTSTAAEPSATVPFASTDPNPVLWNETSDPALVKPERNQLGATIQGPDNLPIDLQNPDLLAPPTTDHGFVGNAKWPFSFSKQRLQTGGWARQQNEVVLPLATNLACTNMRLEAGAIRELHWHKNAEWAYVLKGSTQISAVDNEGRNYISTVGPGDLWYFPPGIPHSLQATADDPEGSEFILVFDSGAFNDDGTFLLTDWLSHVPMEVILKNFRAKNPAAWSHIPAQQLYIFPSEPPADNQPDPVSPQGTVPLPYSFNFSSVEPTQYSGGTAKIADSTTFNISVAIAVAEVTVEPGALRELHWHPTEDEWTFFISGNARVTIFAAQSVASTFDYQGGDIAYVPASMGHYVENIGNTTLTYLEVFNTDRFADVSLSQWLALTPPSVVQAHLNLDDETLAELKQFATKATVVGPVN
Kind of data set: Oxalate decarboxylase assay: liberation of 14CO2 from [14C]-oxalic acid; Lineweaver-Burk plots. It is filed as biochemical, Collybia velutipes (strain S. A.T.C.C 13547). The protocol: (§1) The oxalate decarboxylase activity was also determined by measuring the liberation of ^14 CO2 from [^14 C]-oxalic acid (Amersham, 4.1 mCi/mmol). The enzyme assay was carried out in small glass vails which contained 1 ml of the following reaction mixture: 0.2M potassium citrate, pH 3.0, 0.005M potassium oxalate, pH 3.0, 5.6 nmoles (0.0227 μCi) of (^14 C)-oxalic acid and 0.2 ml of enzyme solution. The tubes were preincubated for 5 min before the addition of enzyme. The tubes were sealed with rubber-stoppers and incubated at 37° C. for 30 min in a shaking water bath. The reaction was terminated by injection of 0.2 ml of 50% v/v trichloroacetic acid through the rubber caps and the tubes were shaken for additional 60 min to trap all the ^14 CO2 evolved in the 0.2 ml methylbenzethonium hydroxide(Sigma) placed in a plastic vial inside the glass tube. The plastic wells were withdrawn and the contents transferred to 5 ml of toluene based scintillation fluid and radioactivity determined in a liquid scintillation counter. Blanks tubes were set up in which the 0.2 ml of 50% TCA was added before the enzyme or the enzyme was omitted. In kinetic experiments, the values were corrected for the radioactivity obtained from the boiled denatured enzyme.
One unit was defined as the amount of enzyme releasing 1 μmole of ^14 CO2 per min at 37° C. under standard assay conditions. The overall assay efficiency was usually between 60-70%. Protein was determined by Lowry microassay method (Peterson, Anal. Biochem. 83:346 (1977)). Vmax and Km were determined by Lineweaver-Burk plot (Lineweaver and Burk, J. Am. Chem. Soc. 56:658-666 (1934)).

Substrate in data set [2]: O=C(O)C(=O)O
The data set is described as above. It is filed as biochemical, Collybia velutipes (strain S. A.T.C.C 13547). Particulars: other: peak A enzyme, Lineweaver-Burk plot, 0.2M potassium citrate pH 3.0, 37° C. Here is the method: as §1, with “The reaction was terminated by injection of 0.2 ml of 50% v/v trichloroacetic acid through the rubber caps and the tubes were shaken for additional 60 min to trap all the ^14 CO2 evolved in the 0.2 ml methylbenzethonium hydroxide(Sigma) placed in a plastic vial inside the glass tube.” left out, “Blanks tubes were set up in which the 0.2 ml of 50% TCA was added before the enzyme or the enzyme was omitted.” left out
One unit was defined as the amount of enzyme releasing 1 μmole of ^14 CO2 per min at 37° C. under standard assay conditions. […] Protein was determined by Lowry microassay method (Peterson, Anal. Biochem. 83:346 (1977)). Vmax and Km were determined by Lineweaver-Burk plot (Lineweaver and Burk, J. Am. Chem. Soc. 56:658-666 (1934)).

Broadly, the Ki is the dissociation constant of the complex between target and ligand, obtained from inhibition or displacement. On to `O=P(O)(O)O` [phosphate ions, phosphate], for which the Ki in data set [1] (competitive inhibition, 90 mM PO4^2- added to the reaction, read-out: Ki (phosphate ions)) was determined as 9 mM.
Broadly, the Vmax is the top rate of the reaction or transport when substrate is in excess. Regarding `O=C(O)C(=O)O` [potassium oxalate], the maximal velocity (Vmax) in data set [1] (peak A enzyme, potassium oxalate as substrate, Lineweaver-Burk plot, pH 3.0, 37° C.) turned out to be 166 µmol/min/mg.
In the case of `O=C(O)CI` [iodoacetate], the activity at 50000 µM in data set [1] (read-out: activity retained in the presence of sulfhydryl group reagent) was 95%.
On to `O=S(=O)(O)c1cc[c]([Hg][Cl])cc1` [p-chloromercuribenzenesulfonic acid], for which, in data set [1] (50 mM reagent), the “activity retained in the presence of sulfhydryl group reagent” value is listed as 95%.

B1: Collybia velutipes oxalate decarboxylase, purified native enzyme, peak A (eluting at pH 3.3 on chromatofocusing) (Flammulina velutipes) (protein)
chain: VPLASTTTGTGTATGTSTAAEPSATVPFASTDPNPVLWNETSDPALVKPERNQLGATIQGPDNLPIDLQNPDLLAPPTTDHGFVGNAKWPFSFSKQRLQTGGWARQQNEVVLPLATNLACTNMRLEAGAIRELHWHKNAEWAYVLKGSTQISAVDNEGRNYISTVGPGDLWYFPPGIPHSLQATADDPEGSEFILVFDSGAFNDDGTFLLTDWLSHVPMEVILKNFRAKNPAAWSHIPAQQLYIFPSEPPADNQPDPVSPQGTVPLPYSFNFSSVEPTQYSGGTAKIADSTTFNISVAIAVAEVTVEPGALRELHWHPTEDEWTFFISGNARVTIFAAQSVASTFDYQGGDIAYVPASMGHYVENIGNTTLTYLEVFNTDRFADVSLSQWLALTPPSVVQAHLNLDDETLAELKQFATKATVVGPVN
notes: chromatofocusing peak A (pH 3.3); about 55 kDa when deglycosylated
What is called Km is the concentration of substrate that gives half-maximal velocity. For B1, in data set [2], the Michaelis constant (Km) is given as 4.5 mM and the Vmax was 166 µmol/min/mg.
